Experimental data reported in patent US6552012B2 (priority 2000, dated 2003).
pIC50: −log10 of the molar value. Structures can show the parent of a compound that is named as a salt. Where two headings read alike, the source gives them in different places.

How the values were obtained:
[1] = target: T1, nAChRs comprised of α4 and β2 subunits (Rattus norvegicus, UniProt P09483+P12390); test: In vitro inhibition of 3H-cytisine binding (Assay I)
T1 construct: Cerebral corticies from male Wistar rats (150-250 g) are homogenised; from tissue; host or cells: rat cerebral cortex membranes (male Wistar)
Description: In Vitro inhibition of ^3H-cytisine binding (Assay I)
The predominant subtype with high affinity for nicotine is comprised of α4 and β2 subunits. nAChRs of the latter type can selectively be labelled by the nicotine agonist ^3H-cytisine.
Preparations are performed at 0-4° C. unless otherwise indicated. Cerebral corticies from male Wistar rats (150-250 g) are homogenised for 20 seconds in 15 ml Tris, HCl (50 mM, pH 7.4) containing 120 mM NaCl, 5 mM KCl, 1 mM MgCl2 and 2.5 mM CaCl2 using an Ultra-Turrax homogeniser. The homogenate is centrifuged at 27,000×g for 10 minutes. The supernatant is discarded and the pellet is resuspended in fresh buffer and centrifuged a second time. The final pellet is resuspended in fresh buffer (35 ml per g of original tissue) and used for binding assays.
Aliquots of 500 μl homogenate are added to 25 μl of test solution and 25 μl of ^3H-cytisine (1 nM, final concentration), mixed and incubated for 90 minutes at 2° C. Non-specific binding is determined using (−)-nicotine (100 μM, final concentration). After incubation the samples are added 5 ml of ice-cold buffer and poured directly onto Whatman GF/C glass fibre filters under suction and immediately washed with 2×5 ml ice-cold buffer. The amount of radioactivity on the filters is determined by conventional liquid scintillation counting. Specific binding is total binding minus non-specific binding.

[2] = target: T2, nAChR formed by the α7 subunit isoform (Rattus norvegicus, UniProt Q05941); test: biochemical; assay type: binding; details: read-out: Assay III IC50
T2 construct: Cerebral cortices from male Wistar rats (150-250 g) are homogenised; from tissue; host or cells: rat cerebral cortex membranes (male Wistar)

[3] = 3H-cytisine 1 nM, rat cerebral cortex homogenate, read-out: Assay I IC50

T2 sequence (Q05941 23-502): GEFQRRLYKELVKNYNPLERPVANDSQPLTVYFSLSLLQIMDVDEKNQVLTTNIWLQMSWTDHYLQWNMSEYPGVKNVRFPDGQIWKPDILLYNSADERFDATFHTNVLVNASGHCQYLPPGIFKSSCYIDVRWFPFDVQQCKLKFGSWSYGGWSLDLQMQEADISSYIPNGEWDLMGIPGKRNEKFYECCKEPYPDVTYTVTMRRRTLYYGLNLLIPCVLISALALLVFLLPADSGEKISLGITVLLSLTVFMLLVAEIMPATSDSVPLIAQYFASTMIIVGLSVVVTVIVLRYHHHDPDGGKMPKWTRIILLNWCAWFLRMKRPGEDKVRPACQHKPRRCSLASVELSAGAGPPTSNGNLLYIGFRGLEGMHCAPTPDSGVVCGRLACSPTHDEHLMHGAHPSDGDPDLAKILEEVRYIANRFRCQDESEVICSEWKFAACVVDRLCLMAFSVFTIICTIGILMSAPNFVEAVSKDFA
T1 sequence (P09483 31-630): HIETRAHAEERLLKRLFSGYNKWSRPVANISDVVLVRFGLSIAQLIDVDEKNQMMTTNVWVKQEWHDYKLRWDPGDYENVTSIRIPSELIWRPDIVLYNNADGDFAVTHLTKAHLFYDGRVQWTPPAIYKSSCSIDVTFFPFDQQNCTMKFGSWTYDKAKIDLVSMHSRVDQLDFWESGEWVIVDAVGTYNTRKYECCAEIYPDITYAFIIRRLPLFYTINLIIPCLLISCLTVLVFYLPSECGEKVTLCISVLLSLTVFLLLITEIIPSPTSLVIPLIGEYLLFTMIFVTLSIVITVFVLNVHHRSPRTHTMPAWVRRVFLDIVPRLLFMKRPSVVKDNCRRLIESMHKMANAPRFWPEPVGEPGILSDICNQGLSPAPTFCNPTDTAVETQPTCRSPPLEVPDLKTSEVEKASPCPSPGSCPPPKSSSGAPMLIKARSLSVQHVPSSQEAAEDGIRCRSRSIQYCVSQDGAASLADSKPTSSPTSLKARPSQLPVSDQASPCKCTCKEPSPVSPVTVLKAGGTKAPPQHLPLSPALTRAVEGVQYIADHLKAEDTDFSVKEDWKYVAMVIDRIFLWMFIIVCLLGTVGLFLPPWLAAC
T1 sequence (P12390 25-500): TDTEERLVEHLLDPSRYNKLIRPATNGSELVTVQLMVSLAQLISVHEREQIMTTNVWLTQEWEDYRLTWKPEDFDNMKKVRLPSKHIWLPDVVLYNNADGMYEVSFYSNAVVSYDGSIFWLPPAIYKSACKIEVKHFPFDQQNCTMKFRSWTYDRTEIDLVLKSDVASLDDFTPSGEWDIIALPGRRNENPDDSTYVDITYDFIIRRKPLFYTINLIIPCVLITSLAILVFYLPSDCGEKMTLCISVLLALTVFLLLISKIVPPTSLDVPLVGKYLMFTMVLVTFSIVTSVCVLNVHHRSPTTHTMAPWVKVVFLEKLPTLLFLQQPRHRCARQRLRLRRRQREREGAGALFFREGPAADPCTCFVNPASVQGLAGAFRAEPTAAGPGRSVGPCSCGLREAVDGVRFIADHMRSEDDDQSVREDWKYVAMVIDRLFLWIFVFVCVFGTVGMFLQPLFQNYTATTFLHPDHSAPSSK

Compound	melting point [°C]	pIC50 [1, 3]	pIC50 [2]	pIC50 [1]
CN1C2CCC1CN(c1cncc(Cl)c1)CC2.O=C(O)/C=C/C(=O)O (stereo not drawn)	181 to 182			
CN1C2CCCC1CN(c1cncc(Br)c1)CC2.O=C(O)/C=C/C(=O)O (stereo not drawn)	162.5 to 164.5			
CCOc1cc(N2CCC3CCC(C2)N3C)cnc1Cl.O=C(O)/C=C/C(=O)O (stereo not drawn)	208.6			
CC=COc1cncc(N2CCC3CCC(C2)N3)c1 (stereo not drawn) (as salt: fumaric acid salt) [3-[5-(Propyl-1-en-oxy)-3-pyridyl]-3,9-diazabicyclo-[4.2.1]-nonane bis Fumaric Acid Salt]	144 to 146			
CC=COc1cncc(N2C3CCNCC2CC3)c1 (stereo not drawn) (as salt: fumaric acid salt) [9-[5-(Propyl-1-en-oxy)-(3-pyridyl)]-3,9-diazabicyclo-[4.2.1]-nonane Fumaric Acid Salt]	161.5 to 163			
COc1cncc(N2C3CCNCC2CC3)c1 (stereo not drawn) (as salt: fumaric acid salt) [9-[5-Methoxy)-(3-pyridyl)]-3,9-diazabicyclo-[4.2.1]-nonane Fumaric Acid Salt]	183 to 185			
C=COc1cncc(N2CCC3CCC(C2)N3)c1.O=C(O)/C=C/C(=O)O (stereo not drawn) [3-(5-Ethenyloxy-3-pyridyl)-3,9-diazabicyclo-[4.2.1]-nonane Fumaric Acid Salt]	145 to 147	8.70	5.82	
CCOc1cncc(N2CCC3CCC(C2)N3)c1.O=C(O)/C=C/C(=O)O (stereo not drawn) [3-(5-Ethoxy-3-pyridyl)-3,9-diazabicyclo-[4.2.1]-nonane Fumaric Acid Salt]	143 to 146	> 7.52	5.21	
C=COc1cncc(N2CCC3CCC(C2)N3C)c1 (stereo not drawn) [3-(5Ethenyloxy-3-pyridyl)-9-methyl-3,9-diazabicyclo-[4.2.1]-nonane Fumaric Acid Salt]		8.52	5.24	
CC=COc1cncc(N2CCC3CCC(C2)N3)c1 (stereo not drawn) [3-[5-(Propyl-1-en-oxy)-3-pyridyl]-3,9-diazabicyclo-[4.2.1]-nonane bis Fumaric Acid Salt]			5.74	8.70
CC=COc1cncc(N2CCC3CCC(C2)N3C)c1 (stereo not drawn) [3-[5-(Propyl-1-en-oxy)-3-pyridyl]-9-methyl-3,9-diazabicyclo-[4.2.1]-nonane Fumaric Acid Salt]			5.00	8.30
CCOc1cncc(N2CCC3CCC(C2)N3C)c1 (stereo not drawn) [3-[5-Ethoxy-(3-pyridyl)]-9-methyl-3,9-diazabicyclo-[4.2.1]-nonane bis-fumaric Acid Salt]		8.30	5.09	
Clc1ccc(N2CCC3CCC(C2)N3)nn1 (stereo not drawn) [3-[6-Chloro-(3-pyridazinyl)]-3,9-diazabicyclo-[4.2.1]-nonane Fumaric Acid Salt]			5.85	7.70
CN1C2CCC1CN(c1ccc(Cl)nn1)CC2 (stereo not drawn) [3-[6-Chloro-(3-pyridazinyl)]-9-methyl-3,9-diazabicyclo-[4.2.1]-nonane Fumaric Acid Salt]			5.00	5.92
CC=COc1cncc(N2C3CCNCC2CC3)c1 (stereo not drawn) [9-[5-(Propyl-1-en-oxy)-(3-pyridyl)]-3,9-diazabicyclo-[4.2.1]-nonane Fumaric Acid Salt]		8.52	5.57	
CCOc1cncc(N2C3CCNCC2CC3)c1 (stereo not drawn) [9-[5-Ethoxy-(3-pyridyl)]-3,9-diazabicyclo-[4.2.1]-nonane Fumaric Acid Salt]		8.52	5.57	
COc1cncc(N2C3CCNCC2CC3)c1 (stereo not drawn) [9-[5-Methoxy)-(3-pyridyl)]-3,9-diazabicyclo-[4.2.1]-nonane Fumaric Acid Salt]			5.52	6.82
